Data taken from the supplement of paper PMC10307832.

Assays:
Assay in all cases: relative viability (nuclei count vs DMSO), 5 days (fraction); higher = more cells survive
Tivantinib + OSI-027 = compound: O=C1NC(=O)[C@@H](c2cn3c4c(cccc24)CCC3)[C@@H]1c1c[nH]c2ccccc12 [Tivantinib] + COc1cccc2cc(-c3nc([C@H]4CC[C@H](C(=O)O)CC4)n4ncnc(N)c34)[nH]c12 [OSI-027] (partner 0.5 µM)
Summary of the method: (§1)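 A single step with final 0.05% Triton X-100, 1% formaldehyde and 1 ug/ml Hoechst fixed the cells and stained nuclei 5 days after treatment. Lung cancer cell lines in 1536-well plates had been treated by pin tool the day after seeding with one drug alone or a fixed anchor-drug dose plus five library-drug doses (not always all listed) in √10 steps, and nuclei were counted on 4× images. Relative viability is the ratio of nuclei in treated wells to nuclei in vehicle wells, taken as the median of duplicate plates.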

Tivantinib + Linsitinib = compound: O=C1NC(=O)[C@@H](c2cn3c4c(cccc24)CCC3)[C@@H]1c1c[nH]c2ccccc12 [Tivantinib] + C[C@]1(O)C[C@@H](c2nc(-c3ccc4ccc(-c5ccccc5)nc4c3)c3c(N)nccn32)C1 [Linsitinib] (partner 1 µM)
Summary of the method: as §1

Tivantinib + Alpelisib = compound: O=C1NC(=O)[C@@H](c2cn3c4c(cccc24)CCC3)[C@@H]1c1c[nH]c2ccccc12 [Tivantinib] + Cc1nc(NC(=O)N2CCC[C@H]2C(N)=O)sc1-c1ccnc(C(C)(C)C(F)(F)F)c1 [Alpelisib] (partner 2 µM)
Summary of the method: as §1

Tivantinib + Vorinostat = compound: O=C1NC(=O)[C@@H](c2cn3c4c(cccc24)CCC3)[C@@H]1c1c[nH]c2ccccc12 [Tivantinib] + O=C(CCCCCCC(=O)Nc1ccccc1)NO [Vorinostat] (partner 1 µM)
Summary of the method: as §1

Cell Line | relative viability (Tivantinib + OSI-027; first compound 0.01 µM) | relative viability (Tivantinib + OSI-027; first compound 0.03162 µM) | relative viability (Tivantinib + OSI-027; first compound 0.1 µM) | relative viability (Tivantinib + Linsitinib; first compound 0.01 µM) | relative viability (Tivantinib + Linsitinib; first compound 0.03162 µM) | relative viability (Tivantinib + Linsitinib; first compound 0.1 µM) | relative viability (Tivantinib + Alpelisib; first compound 0.01 µM) | relative viability (Tivantinib + Alpelisib; first compound 0.03162 µM) | relative viability (Tivantinib + Alpelisib; first compound 0.1 µM) | relative viability (Tivantinib + Vorinostat; first compound 0.03162 µM) | relative viability (Tivantinib + Vorinostat; first compound 0.1 µM) | relative viability (Tivantinib + Vorinostat; first compound 0.3162 µM) | relative viability (Tivantinib + OSI-027; first compound 0.3162 µM) | relative viability (Tivantinib + Linsitinib; first compound 0.3162 µM) | relative viability (Tivantinib + Alpelisib; first compound 0.3162 µM) | relative viability (Tivantinib + Vorinostat; first compound 0.01 µM)
H3255 | 0.711 | 0.551 | 0.571 | 0.95 | 0.864 | 0.943 | 0.659 | 0.679 | 0.75 | 0.843 | 0.753 | 0.295 | – | – | – | –
NCI-H1395 | 0.678 | 0.662 | 0.651 | 1.1 | 1.22 | 0.926 | 1.18 | 1.23 | 1 | 0.802 | 0.722 | 0.666 | 0.599 | 0.857 | 0.878 | 0.749
NCI-H2228 | – | 0.548 | 0.541 | 0.639 | 0.538 | 0.519 | 0.842 | 0.644 | 0.618 | 0.527 | 0.651 | 0.733 | 0.234 | 0.627 | 0.695 | 0.639
NCI-H2023 | 0.372 | 0.363 | 0.356 | 0.657 | 0.737 | 0.575 | 0.549 | 0.642 | 0.5 | 0.676 | 0.62 | 0.516 | 0.341 | 0.461 | 0.492 | 0.698
NCI-H3122 | 0.985 | 0.914 | 0.93 | 0.939 | 0.946 | 0.973 | 0.731 | 0.849 | 0.803 | 0.943 | 0.947 | 1.11 | 0.207 | 0.968 | 0.807 | 1.09
HCC-827 | 0.764 | 0.844 | 0.708 | 1.03 | 0.991 | 0.96 | 1.04 | 1.03 | 0.922 | 0.809 | 0.862 | – | 0.253 | 0.953 | 0.719 | 0.826
LU99A | 0.295 | 0.295 | 0.296 | 0.537 | 0.54 | 0.523 | 0.477 | 0.477 | 0.453 | 0.438 | 0.456 | 0.47 | 0.249 | 0.384 | 0.369 | 0.514
LC-2-ad | 0.851 | 0.738 | 0.816 | 0.917 | 0.772 | 0.837 | 0.889 | 0.93 | 0.847 | 0.694 | 0.655 | 0.715 | 0.573 | 0.741 | 0.904 | 0.694
NCI-H322M | 0.542 | 0.501 | 0.546 | 0.94 | 0.864 | 0.938 | 0.699 | 0.891 | 0.719 | 0.833 | 0.861 | – | – | 0.398 | 0.546 | 0.903
HOP-62 | 0.831 | 0.566 | 0.876 | 1.02 | – | 1.11 | 1.04 | – | 0.648 | 0.301 | 0.554 | 0.803 | 0.887 | 1.15 | 0.923 | 0.606
SW 1573 | 0.636 | 0.612 | 0.562 | 0.762 | 0.853 | 0.77 | 0.941 | 0.738 | 0.741 | 0.53 | 0.75 | 0.67 | 0.556 | 0.789 | 0.716 | 1.04
NCI-H1993 | 0.538 | 0.57 | 0.563 | 0.742 | 0.863 | 0.734 | 0.682 | 0.707 | 0.644 | 0.704 | 0.728 | 0.66 | 0.61 | 0.721 | 0.669 | 0.84
NCI-H1734 | 0.646 | 0.553 | 0.643 | 0.937 | 0.846 | 0.839 | 0.677 | 0.597 | 0.64 | 0.745 | 0.768 | 0.818 | 0.576 | 0.85 | 0.681 | 0.8
NCI-H1666 | 0.83 | 0.743 | 0.876 | 0.699 | 0.807 | 0.741 | 0.902 | 0.904 | 0.948 | 0.915 | 1 | 0.913 | 0.687 | 0.735 | 0.608 | 1.04
NCI-H460 | 0.608 | 0.573 | 0.619 | 0.833 | 0.637 | 0.746 | 0.508 | 0.373 | 0.447 | 0.67 | 0.71 | 0.404 | 0.864 | 0.683 | 0.473 | 0.665
LCLC-97TM1 | 0.44 | 0.473 | 0.428 | 0.176 | 0.174 | 0.174 | 0.237 | 0.215 | 0.2 | 0.284 | 0.671 | 0.833 | 0.36 | 0.14 | 0.198 | 0.71
LOU-NH91 | 0.657 | 0.709 | 0.729 | 0.859 | 0.884 | 0.958 | 0.663 | 0.695 | 0.742 | 0.811 | 0.916 | 0.749 | 0.465 | 0.536 | 0.533 | 0.838
NCI-H838 | 0.394 | 0.377 | 0.345 | 1.01 | 1.04 | 0.975 | 0.915 | 1.06 | 0.973 | 0.724 | 0.693 | 0.776 | 0.363 | 0.984 | 0.953 | 0.728
NCI-H1437 | 0.911 | 0.795 | 0.811 | 1.06 | 1.04 | 0.958 | 0.969 | 0.934 | 0.898 | 0.82 | 0.829 | 0.853 | 0.886 | 1.04 | 0.971 | 0.877
NCI-H2087 | 0.635 | 0.511 | 0.465 | 0.962 | 0.795 | 0.951 | 1 | 1.06 | 1.02 | 0.672 | 0.722 | 0.477 | 0.478 | 0.944 | 0.956 | 0.724
